From article PMC12154458, “High-Throughput Screens of Repurposing Hub and DOS Chemical Libraries Reveal Compounds with Novel and Potent Inhibitory Activity Against the Essential Non-Neuronal Acetylcholinesterase of Schistosoma mansoni (SmTAChE)” (International Journal of Molecular Sciences, 2025)
Like-named read-outs stand apart in the source and are kept apart here.

What was measured:
[1] = biological target: T1, rSmTAChE (Schistosoma mansoni, UniProt A0A3Q0KMM5); type: biochemical;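 for Inhibition (%) (Average): mostly 20 µM final but a few compounds at 5 or 10 µM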;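 for Inhibition (%) Replicate A: mostly 20 µM final but a few compounds at 5 or 10 µM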;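 for Inhibition (%) Replicate B: mostly 20 µM final but a few compounds at 5 or 10 µM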
T1 sequence (A0A3Q0KMM5 27-661 limits assumed): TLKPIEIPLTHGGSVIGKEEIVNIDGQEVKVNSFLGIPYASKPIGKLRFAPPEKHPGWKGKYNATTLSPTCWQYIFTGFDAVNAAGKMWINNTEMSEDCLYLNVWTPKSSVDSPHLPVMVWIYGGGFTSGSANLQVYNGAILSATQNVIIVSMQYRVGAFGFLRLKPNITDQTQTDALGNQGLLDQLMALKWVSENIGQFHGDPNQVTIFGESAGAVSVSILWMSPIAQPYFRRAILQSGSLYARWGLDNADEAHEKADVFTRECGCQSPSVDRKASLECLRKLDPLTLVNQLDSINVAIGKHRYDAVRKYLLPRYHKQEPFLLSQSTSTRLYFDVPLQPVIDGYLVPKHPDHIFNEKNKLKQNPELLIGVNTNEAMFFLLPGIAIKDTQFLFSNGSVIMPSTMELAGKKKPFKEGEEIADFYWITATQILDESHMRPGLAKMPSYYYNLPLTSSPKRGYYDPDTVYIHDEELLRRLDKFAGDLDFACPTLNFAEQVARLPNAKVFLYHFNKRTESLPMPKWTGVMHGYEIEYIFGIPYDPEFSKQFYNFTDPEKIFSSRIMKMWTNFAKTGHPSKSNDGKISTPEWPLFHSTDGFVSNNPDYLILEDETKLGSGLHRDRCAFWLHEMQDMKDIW

[2] = biological target: recombinant human acetylcholinesterase, rHsAChE (Homo sapiens, UniProt P22303); experiment: biochemical
Chain of recombinant human acetylcholinesterase, rHsAChE (P22303 32-614): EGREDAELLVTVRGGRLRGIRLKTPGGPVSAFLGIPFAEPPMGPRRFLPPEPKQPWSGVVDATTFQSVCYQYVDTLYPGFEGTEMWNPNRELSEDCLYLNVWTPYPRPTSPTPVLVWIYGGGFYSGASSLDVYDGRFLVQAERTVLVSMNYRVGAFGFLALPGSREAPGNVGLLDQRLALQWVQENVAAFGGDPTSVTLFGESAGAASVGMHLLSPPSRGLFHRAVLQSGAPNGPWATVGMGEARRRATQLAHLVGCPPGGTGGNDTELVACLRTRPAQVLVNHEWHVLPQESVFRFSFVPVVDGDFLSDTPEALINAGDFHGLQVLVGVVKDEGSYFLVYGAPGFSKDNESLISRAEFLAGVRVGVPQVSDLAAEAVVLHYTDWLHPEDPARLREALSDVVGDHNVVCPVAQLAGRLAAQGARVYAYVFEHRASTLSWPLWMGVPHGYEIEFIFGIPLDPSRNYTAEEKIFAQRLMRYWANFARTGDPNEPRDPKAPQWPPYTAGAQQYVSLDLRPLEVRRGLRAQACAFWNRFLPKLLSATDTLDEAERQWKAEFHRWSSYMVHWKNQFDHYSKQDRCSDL

[3] = biological target: T1, rSmTAChE; experiment: biochemical
[4] = read-out: qAC50 (IC50), rSmTAChE
[5] = read-out: qAC50 (IC50), rHsAChE
[6] = read-out: rSmTAChE HTS Inhibition (Ave, %)
[7] = dose response analysis of Drug Repurposing Hub hits against rHsAChE

Row | Structure (SMILES) | Data Mode (curve class), rSmTAChE [1] | Data Mode (curve class), rHsAChE [2] | Inhibition (%) (Average) [3] | Inhibition (%) Replicate A [3] | Inhibition (%) Replicate B [3] | IC50 [1, 4] | also measured
1 | C[C@]12CC[C@@H]3c4ccc(O)cc4CC[C@H]3[C@@H]1CCC2=O [BRD-K81839095-001-25-1] | inactive | inactive | 94.45% | 91.12% | 97.78% | – | –
2 | C=CCNc1nc(NCC=C)nc(N2CCN(C(c3ccc(F)cc3)c3ccc(F)cc3)CC2)n1 [BRD-K82677201-001-01-6] | decreasing (weakly active) | decreasing (weakly active) | 71.59% | 72.90% | 70.28% | > 38 µM | IC50 [2, 5]: > 38 µM
3 | O=C(O)CCc1cc(C(=O)c2ccc(OC3CCCC3)cc2O)ccc1OCc1ccc2c(=O)[nH]oc2c1 [BRD-K84925803-001-01-9] | decreasing (weakly active) | inactive | 87.31% | 83.68% | 90.95% | > 38 µM | –
4 | CC1CCCCOC(CN(C)C(=O)Nc2cccc3ccccc23)C(C)CN(C(C)CO)C(=O)c2cc(N(C)C)ccc2O1 (centres unmarked) [BRD-K85440939-001-01-5] | – | – | – | – | – | – | rSmTAChE Data Mode [1]: decreasing; IC50 (µM) rHsAChE ([2]; Table 2, DOS-A library, Inactive = inactive at the maximum tested concentration (40 µM)): Inactive *; inhibition at 20 µM [3, 6]: 63.9%
5 | C[C@H](CO)N1C[C@H](C)[C@H](CN(C)CC2CC2)OCc2ccccc2-c2c(n(C)c3ccccc23)C1=O [BRD-K90625171-001-01-1] | – | – | 64.57% | 64.87% | 64.27% | – | rSmTAChE Data Mode [1]: decreasing (weakly active); rHsAChE Data Mode [2]: inactive
6 | CN(Cc1ccc(C(C)(C)C)cc1)Cc1cccc2ccccc12 [BRD-K90630139-003-05-9] | inactive | decreasing (weakly active) | 62.99% | 64.97% | 61.01% | – | IC50 [2, 5]: > 38 µM
7 | O=C(O)C1(C(=O)O)CCC1.[NH2-].[NH2-].[Pt+2] [BRD-K90947825-001-02-7] | decreasing | decreasing (weakly active) | 69.15% | 70.08% | 68.22% | 35.4 µM | IC50 [2, 5]: > 38 µM
8 | CCCNC(=O)Nc1ccc(Oc2ncnc3cc(OC)c(OC)cc23)cc1Cl [BRD-K90993449-001-02-7] | decreasing (weakly active) | inactive | 77.29% | 77.00% | 77.59% | > 38 µM | –
9 | COc1ccc(NC(=O)Nc2ccc3c(c2)[C@H]2C[C@@H](CC(=O)NCc4ccccn4)O[C@H](CO)[C@H]2O3)cc1 [BRD-K96625719-001-01-4] | – | – | 74.63% | 75.38% | 73.88% | – | rSmTAChE Data Mode [1]: decreasing (weakly active); rHsAChE Data Mode [2]: inactive
10 | CC(C)=CCC/C(C)=C/CC/C(C)=C/CSc1ccccc1C(=O)O [BRD-K98453471-001-01-7] | decreasing | decreasing | 76.52% | 77.70% | 75.33% | 11.6 µM | IC50 [2, 5]: 13.7 µM
11 | Cc1cc(Nc2ncc(Cl)c(Nc3ccccc3S(=O)(=O)C(C)C)n2)c(OC(C)C)cc1C1CCNCC1 [Ceritinib, reference compound] | decreasing | – | – | – | – | – | SI (Hs/Sm) [1]: 1.58; Data Mode (curve class), rHsAChE [2, 7]: decreasing (weakly active); inhibition at 20 µM ([3]; read-out: HTS/rSmTAChE Inhibition (Ave, %)): 67%
12 | N.N.[Cl][Pt][Cl] [Cisplatin, reference compound] | decreasing | decreasing (weakly active) | 89.23% | 89.47% | 88.99% | – | SI (Hs/Sm) [1]: 9.97; fold greater potency/selectivity for SmTAChE vs. HsAChE (Selectivity Index) [1]: about 10 fold; IC50 ([1]; read-out: IC50 (µM) rSmTAChE): 3.81 µM; HTS/rSmTAChE Inhibition (Ave, %) ([3]; 20 µM): 89.23%
13 | CC1(COc2ccc3c(c2)ncn3-c2ccc3cccc(N4CCC(N)CC4)c3n2)COC1 [Crenolanib, reference compound] | decreasing (weakly active) | – | – | – | – | – | SI (Sm/Hs) [2]: 1.97; IC50 ([2]; Table 3, read-out: IC50 (µM) rHsAChE): 9.91 µM; Data Mode (curve class), rHsAChE [2, 7]: decreasing; inhibition at 20 µM [3, 6]: 64.5%
14 | CN(CCCCCCCCCCN(C)C(=O)Oc1cccc([N+](C)(C)C)c1)C(=O)Oc1cccc([N+](C)(C)C)c1 [Demecarium bromide, reference compound] | decreasing | decreasing | – | – | – | – | IC50 ([2]; IC50 (µM) rHsAChE): 0.02 µM; IC50 ([2]; qAC50 (IC50), rHsAChE): 0.0225 µM; inhibition at 20 µM [3, 6]: 65.3%
